Assay results taken from patent US20050215490A1, “Polyene polyketides and methods of treating bacterial infections” (Ecopia BioSciences, Inc., priority 2003, published 2005).
≈ marks a conversion by molar mass, not a printed value. Like-named read-outs stand apart in the source and are kept apart here.

Columns and labels:
Type in all cases: cell-based
in vitro = details: sheep
Method: A. Toxicity: Acute toxicities were determined using CD-1 female mice (supplied by Charles River Laboratories, Wilmington, Mass.) having a bodyweight of 18-25 g, and about 6 weeks of age. Compounds 1 and 2 at doses ranging from 1 to 70 mg/kg (formulated in 20% propylene glycol/water for a total volume of 10 μL/g of weight) were administered intraperitoneal (i.p.) and intravenous (i.v.) to groups of 5 mice (5 mice per concentration, per mode of administration). Two groups of 3 mice were injected with vehicle only. Mice were observed immediately after injection, within 4 hours and once a day for the subsequent days. Acute toxicity studies of Compound 1 in mice indicated no observable effect and high dose tolerability: 70 mg/kg intraperitoneal and 50 mg/kg intravenous (an MTD of 250 mg/kg was also determined by oral administration). […] In vitro Haemolytic activity results are also shown in Table 7, along with the in vivo toxicity and efficacy of Compound 1.

[1] = test system: Staphylococcus aureus NRRL B-313 (ATCC™ 6538P); assay: MIC at different pH
Method: Antibacterial activitiy of Compounds.3, 4, 5, 6 and 7 are accomplished using the same method in a panel of bacterial strains and Vancomycin as positive control.
Antibacterial efficacy of Compounds 1, 2, 3, 4, 5 and 6 on bacterial strain Staphylococcus aureus NRRL B-313 (ATCC™ 6538P) was determined at different pH concentrations.

[2] = test system: Micrococcus luteus (ATCC™ 9341); assay: MIC, broth microdilution (NCCLS M7-A5); details: ATCC9341, 18 h
Method: (§1) Antibacterial activity of Compounds 1 and 2 (Table 4) was measured by determining the minimal inhibitory concentration (MIC) necessary to obtain a complete inhibition of bacteria growth in eight indicator strains, namely Staphylococcus aureus (ATCC™ 6538P), Staphylococcus aureus MRS3 (ATCC™ 700699), Staphylococcus epidermidis (ATCC™ 12228), Bacillus subtilis (ATCC™ 23857), Bacillus megaterium (ATCC™ 14581), Enterococcus faecalis VRE-1 (ATCC™ 29212), Enterococcus faecalis VRE-2 (ATCC™ 51299) and Micrococcus luteus (ATCC™ 9341). Indicator strains preparation and MIC determination were performed according to the National Committee for Clinical Laboratory Standards (NCCLS) guideline M7-A5 Methods for Dilution Antimicrobial Susceptibility Tests for Bacteria That Grow Aerobically; Approved Standard-Fifth Edition. (NCCLS document M7-A5, ISBN 1-56238-394-9; NCCLS, 940 West Valley Road, Suite 1400, Wayne, Pa. 19087-1898 USA), the content of which is incorporated herein by reference.
(§2) Compounds 1 and 2 were prepared as 100× stock solution in DMSO, with concentrations ranging from 3.2 mg/ml to 0.00625 mg/ml (a two-fold dilution series over […]). An aliquot of each 100× stock solution was diluted 50-fold in test medium described below to give a set of ten (10) 2× solutions ranging from 64 to 0.125 μg/mL. 50 μl of each of the ten 2× solutions was aliquoted into the corresponding well of a 12-well row, with the final well reserved for medium alone control. Each test was made in duplicate.
(§3) Vancomycin (Sigma™) used as positive control compounds, was prepared as 2× stock solutions in sterile, double-distilled water (ddH2O) ranging from 64 μg/ml to […] (a two-fold dilution series over 10 points). An aliquot of 50 μl corresponding to each concentration (at 2×) was then transferred to 96-well microplates to obtain a series of eleven two-fold dilutions.
(§4) An isolated colony of each of the eight indicator strains was used to inoculate tubes containing 3 ml of test medium. Mueller-Hinton test medium was used for Staphylococcus aureus (ATCC™ 6538P), Staphylococcus aureus MRS3 (ATCC™ 700699), Staphylococcus epidermidis (ATCC™ 12228), Bacillus subtilis (ATCC™ 23857), Bacillus megaterium (ATCC™ 14581) and Micrococcus luteus (ATCC™ 9341) indicator strains, and BHI (Brain-Heart Infusion broth) test medium was used for Enterococcus faecalis VRE-1 (ATCC™ 29212) and Enterococcus faecalis VRE-2 (ATCC™ 51299) indicator strains. Cells were grown overnight at 28° C. with shaking. Inoculum density for each indicator strain was adjusted to OD600=0.1 in 5 ml 0.85% saline, then further diluted 1/100 in appropriate medium. 50 μl of the final dilution (in test medium) of each indicator strain was added to each well of a 12-well row. This brings the final dilution of the test article or control compound in solution to 1×. The final inoculum is approximately 5×10^5 CFU/ml.
(§5) The indicator strains were incubated with 11 concentrations of each of Compounds 1 and 2, Vancomycin (Sigma™) control compound and one media alone control. For MIC determination, assay plates were incubated at 35° C. for 18 hours.

[3] = test system: Staphylococcus aureus (ATCC™ 6538P); assay: MIC, broth microdilution (NCCLS M7-A5); details: ATCC6538P, 18 h
Method: as §1, §2, §3, §4, §5

[4] = test system: Bacillus subtilis (ATCC™ 23857); assay: MIC, broth microdilution (NCCLS M7-A5); details: ATCC23857, 18 h
Method: as §1, §2, §3, §4, §5

[5] = test system: Staphylococcus epidermidis (ATCC™ 12228); assay: MIC, broth microdilution (NCCLS M7-A5); details: ATCC12228, 18 h
Method: as §1, §2, §3, §4, §5

[6] = test system: Staphylococcus aureus MRS3 (ATCC™ 700699); assay: MIC, broth microdilution (NCCLS M7-A5); details: ATCC700699, 18 h
Method: as §1, §2, §3, §4, §5

[7] = test system: Bacillus megaterium (ATCC™ 14581); assay: MIC, broth microdilution (NCCLS M7-A5); details: Priestia megaterium, ATCC14581, 18 h
Method: as §1, §2, §3, §4, §5

[8] = test system: Enterococcus faecalis VRE-1 (ATCC™ 29212); assay: MIC, broth microdilution (NCCLS M7-A5); details: 18 h
Method: as §1, §2, §3, §4, §5

[9] = test system: Enterococcus faecalis VRE-2 (ATCC™ 51299); assay: MIC, broth microdilution (NCCLS M7-A5); details: 18 h
Method: as §1, §2, §3, §4, §5

[10] = S. aureus ATCC 6538P, pH 5.0, read-out: MIC
[11] = S. aureus ATCC 6538P, pH 6.0, read-out: MIC
[12] = S. aureus ATCC 6538P, pH 7.0, read-out: MIC

Row | MIC [1, 10] | MIC [1, 11] | MIC [1, 12] | Compound | also measured
1 |  |  |  | C[C@@H]1[C@H](O)[C@@H](C)/C=C/C=C/C=C/C=C/C=C/C=C/C=C/[C@H](O[C@@H]2O[C@H](C)[C@@H](O)[C@H](N)[C@@H]2O)C[C@@H]2O[C@](O)(C[C@@H](O)C[C@@H](O)[C@H](O)CC[C@@H](O)C[C@@H](O)CC(=O)O[C@H]1C)C[C@H](O)[C@H]2C(=O)O [Amphotericin, reference compound] | EC50 (in vitro): 3 µg/mL (≈ 3.25 µM)
2 | 2 µg/mL (≈ 2.31 µM) | 4 µg/mL (≈ 4.62 µM) | 4 µg/mL (≈ 4.62 µM) | COC(=O)C1OC(OC(C(C)=CC(C)CCCC=CC(C)CC=CCCCN(C)C(=N)N)C(C)C=CC=CC=CC=CC=C(C)C(=O)NC2=C(OC)CCC2=O)C(O)C(O)C1O (stereo not shown) [Compound 5, 3,4,5-trihydroxy-6-[1-[11-(2-methoxy-5-oxo-cyclopent-1-enylcarbamoyl)-1-methyldodeca-2,4,6,8,10-pentaenyl]-2,4,10-trimethyl-16-(N-methyl-guanidino)-hexadeca-2,8,12-trienyloxy]-tetrahydropyran-2-carboxylic acid methyl ester] | 
3 | 2 µg/mL (≈ 2.35 µM) | 2 µg/mL (≈ 2.35 µM) | 2 µg/mL (≈ 2.35 µM) | COC1=C(NC(=O)/C(C)=C/C=C/C=C/C=C/C=C/C(C)C(OC2OC(C(=O)O)C(O)C(O)C2O)/C(C)=C/C(C)CCC/C=C/C(C)C/C=C/CCCN(C)C(=N)N)C(=O)CC1 (stereo not shown) [Compound 4, 3,4,5-trihydroxy-6-[1-[11-(2-methoxy-5-oxo-cyclopent-1-enylcarbamoyl)-1-methyldodeca-2,4,6,8,10-pentaenyl]-2,4,10-trimethyl-16-(N-methyl-guanidino)-hexadeca-2,8,12-trienyloxy]-tetrahydropyran-2-carboxylic acid] | 
4 | 0.25 µg/mL (≈ 0.284 µM) | 0.5 µg/mL (≈ 0.569 µM) | 2 µg/mL (≈ 2.28 µM) | CC(=O)NC(=N)N(C)CCC/C=C/CC(C)/C=C/CCCC(C)/C=C(\C)C(OC1OC(C(=O)O)C(O)C(O)C1O)C(C)/C=C/C=C/C=C/C=C/C=C(\C)C(=O)NC1=C(O)CCC1=O (stereo not shown) [Compound 6, 6-{16-(N′-acetyl-N-methylguanidino)-1-[11-(2-hydroxy-5-oxocyclopent-1-enylcarbamoyl)-1-methyldodeca-2,4,6,8,10-pentaenyl]-2,4,10-trimethylhexadeca-2,8,12-trienyloxy}-3,4,5-trihydroxytetrahydropyran-2-carboxylic acid] | 
5 | 2 µg/mL (≈ 2.35 µM) | 4 to 8 µg/mL (≈ 4.7 to 9.4 µM) | 16 µg/mL (≈ 18.8 µM) | COC(=O)C1OC(OC(/C(C)=C/C(C)CCC/C=C/C(C)C/C=C/CCCN(C)C(=N)N)C(C)/C=C/C=C/C=C/C=C/C=C(\C)C(=O)NC2=C(O)CCC2=O)C(O)C(O)C1O (stereo not shown) [Compound 3, 3,4,5-trihydroxy-6-[1-[11-(2-hydroxy-5-oxocyclopent-1-enylcarbamoyl)-1-methyldodeca-2,4,6,8,10-pentaenyl]-2,4,10-trimethyl-16-(N-methyl-guanidino)-hexadeca-2,8,12-trienyloxy]-tetrahydropyran-2-carboxylic acid methyl ester] | 
6 |  |  |  | CN[C@H](CC(C)C)C(=O)N[C@H]1C(=O)N[C@@H](CC(N)=O)C(=O)N[C@H]2C(=O)N[C@H]3C(=O)N[C@H](C(=O)N[C@H](C(=O)O)c4cc(O)cc(O)c4-c4cc3ccc4O)[C@H](O)c3ccc(c(Cl)c3)Oc3cc2cc(c3O[C@@H]2O[C@H](CO)[C@@H](O)[C@H](O)[C@H]2O[C@H]2C[C@](C)(N)[C@H](O)[C@H](C)O2)Oc2ccc(cc2Cl)[C@H]1O [Vancomycin, reference compound] | MIC ([1]; pH 5): 1 µg/mL (≈ 0.69 µM); MIC ([1]; pH 6): 1 µg/mL (≈ 0.69 µM); MIC ([1]; pH 7): 1 µg/mL (≈ 0.69 µM); MIC [2]: 1 µg/mL (≈ 0.69 µM); MIC [3]: 2 µg/mL (≈ 1.38 µM); MIC [4]: 0.25 µg/mL (≈ 0.173 µM); MIC [5]: 2 µg/mL (≈ 1.38 µM); MIC [6]: 4 µg/mL (≈ 2.76 µM); MIC [7]: 0.125 µg/mL (≈ 0.0863 µM); MIC [8]: 4 µg/mL (≈ 2.76 µM); MIC [9]: 8 to 16 µg/mL (≈ 5.52 to 11 µM)
7 |  |  | 32 to 64 µg/mL (≈ 43.1 to 86.3 µM) | C\C(=C/C=C/C=C/C=C/C=C/C(C)C(OC1OC(C(=O)O)C(O)C(O)C1O)/C(C)=C/C(C)CCC/C=C/C(C)C/C=C/CCCN(C)C(=N)N)C(=O)O (stereo not shown) [Compound 7, 6-[1-(11-carboxy-1-methyldodeca-2,4,5,8,10-pentaenyl)-2,4,10-trimethyl-16-(N-methylguanidino)-hexadeca-2,8,12-trienyloxy]-3,4,5-trihydroxy-tetrahydropyran-2-carboxylic acid] | 
